Columns and labels:
[1] = system: normal human dermal fibroblasts (NHDF); assay: NHDF proliferation after transfer of supernatants from transfected HEK 293 cells, Alamar Blue; assay type: cell-based; details: 25 μl HEK 293 supernatant, 4 days, versus empty vector
Description: In order to investigate the cell type specificity of TBK-1, supernatants from transfected HEK 293 cells were also added to normal human dermal fibroblasts (NHDF). NHDF were seeded at 1,000 cells per well on 96-well tissue culture plates two days prior to the transfer in 100 μl complete Fibroblast Growth Medium (Promocell, Heidelberg). 24 h prior to the transfer the medium was changed to 100 μl Fibroblast Basal Medium (Promocell, Heidelberg) containing 75 μg/ml gentamycin, 50 ng/ml amphotericin B. After 25 μl of HEK 293 supernatant had been transferred, cells were incubated for 4 days and viable cell number was assessed by Alamar Blue reduction as above.

TBK-1 mRNA = TBK-1 mRNA knock down by RNAi in HEK 293 cells, quantitative RT-PCR relative to G6PDH; assay type: cell-based, human; details: 100 nM siRNA
Description: Real-time PCR was carried out using a LightCycler (Roche Diagnostics). Reactions were set up in microcapillary tubes using the following final concentrations: 0.5 μM each of TBK-1 sense (TTGAAGAGGAGACAACAACAAGA) and TBK-1 antisense (CAT TCC ACC CAC CAC ATC T) primers, 3 mM MgCl2, 1×SYBR Greenmaster mix and 2 μl of cDNA.
(§1) Cycling conditions for TBK-1 were as follows: denaturation (95° C. for 10 min), amplification and quantitation (95° C. for 10 s, 58° C. for 10 s and 72° C. for 13 s, with a single fluorescence measurement at the end of the 72° C. for 13 s segment) repeated 45 times. A melting curve program (55-95° C. with a heating rate of 0.1° C./s and continuous fluorescence measurement) and a cooling step to 40° C. followed.
(§2) For relative quantification the procedure was repeated for G6PDH mRNA as reference gene. Data were analyzed using LightCycler analysis software.
(§3) HEK 293 cells were transfected with double stranded RNAi oligos specific for TBK-1 using siPORT Amine according to the manufacture's protocol (Ambion Europe LTD, Cambridgeshire, United Kingdom). […] Under these conditions, increased expression of VEGF is observed and can be detected via VEGF ELISA (as shown in example 3).
To determine the functionality of the RNAi molecule regarding inhibition of TBK-1 expression, relative expression levels of TBK-1 mRNAs were analysed by quantitative real-time PCR. […]

VEGF mRNA = assay: Hypoxia (CoCl2)-induced VEGF mRNA expression in HEK 293 cells after TBK-1 RNAi, quantitative RT-PCR relative to G6PDH; assay type: cell-based, human; details: 100 nM siRNA
Description: Real-time PCR was carried out using a LightCycler (Roche Diagnostics). Reactions were set up in microcapillary tubes using the following final concentrations: 0.5 μM each of VEGF sense (CTTGCCTTGCTGCTCTACCT) and VEGF antisense (GATTCTGCCCTCCTCCTTCT) primers, 3 mM MgCl2, 1×SYBR Greenmaster mix and 2 μl of cDNA. For TBK-1 0.5 μM each of TBK-1 sense (TTGAAGAGGAGACAACAACAAGA) and TBK-1 antisense (CAT TCC ACC CAC CAC ATC T) primers were used.
as §1, with “VEGF” for “TBK-1”, “followed. Cycling conditions for TBK-1 were identical.” for “followed.”
as §2
as §3, with “3). […]” for “3).”

Substance | stimulation of NHDF proliferation [1] | inhibition of expression of TBK-1 mRNA (TBK-1 mRNA) [%] | induction of VEGF mRNA under hypoxia (VEGF mRNA)
FGF-2 | clearly responsive | – | –
TBK-1 RNAi: double stranded RNAi oligo specific for TBK-1: sense GGA GAC AAC AAC AAG ACA Utt, antisense AUG UCU UGU UGU UGU CUC Ctc (sense GGAGACAACAACAAGACAU; antisense AUGUCUUGUUGUUGUCUCCC; listed as RNA, chemistry not given here) | – | > 85 | significantly reduces
